Measured values published in publication PMC6189519, “Evaluation of the DREAM Technique for a High-Throughput Deorphanization of Chemosensory Receptors in Drosophila” (Frontiers in Molecular Neuroscience, 2018).

Legend:
Assay in all cases: single sensillum recording of the wild-type OSN expressing the receptor
[1] = molecular target: T1, Ir31a (Drosophila melanogaster, UniProt Q8IPB8); settings: agonist (best ligand); odorant dilution 10^-1 in hexane, 0.5 s stimulus
T1 construct: native full-length ionotropic receptor in olfactory sensory neurons of wild-type flies (single sensillum recording); with Ionotropic receptor 8a
T1 sequence (Q8IPB8 18-629): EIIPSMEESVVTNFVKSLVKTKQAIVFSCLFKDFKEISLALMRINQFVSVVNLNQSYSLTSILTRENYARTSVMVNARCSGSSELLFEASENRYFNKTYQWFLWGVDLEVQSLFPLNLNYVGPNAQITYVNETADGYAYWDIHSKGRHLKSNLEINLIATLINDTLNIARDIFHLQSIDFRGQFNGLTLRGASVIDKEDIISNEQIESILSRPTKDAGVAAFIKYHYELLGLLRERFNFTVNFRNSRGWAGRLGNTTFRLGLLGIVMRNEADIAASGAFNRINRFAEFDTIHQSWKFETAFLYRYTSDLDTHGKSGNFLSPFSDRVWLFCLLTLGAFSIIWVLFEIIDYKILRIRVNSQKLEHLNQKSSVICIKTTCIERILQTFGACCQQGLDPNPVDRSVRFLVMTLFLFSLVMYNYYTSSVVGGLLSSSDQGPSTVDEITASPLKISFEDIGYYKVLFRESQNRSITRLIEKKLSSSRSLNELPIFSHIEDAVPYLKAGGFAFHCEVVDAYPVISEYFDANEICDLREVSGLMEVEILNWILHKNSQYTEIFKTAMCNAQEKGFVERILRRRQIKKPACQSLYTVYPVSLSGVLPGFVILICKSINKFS
T1 sequence (Q9W365 18-936 partner): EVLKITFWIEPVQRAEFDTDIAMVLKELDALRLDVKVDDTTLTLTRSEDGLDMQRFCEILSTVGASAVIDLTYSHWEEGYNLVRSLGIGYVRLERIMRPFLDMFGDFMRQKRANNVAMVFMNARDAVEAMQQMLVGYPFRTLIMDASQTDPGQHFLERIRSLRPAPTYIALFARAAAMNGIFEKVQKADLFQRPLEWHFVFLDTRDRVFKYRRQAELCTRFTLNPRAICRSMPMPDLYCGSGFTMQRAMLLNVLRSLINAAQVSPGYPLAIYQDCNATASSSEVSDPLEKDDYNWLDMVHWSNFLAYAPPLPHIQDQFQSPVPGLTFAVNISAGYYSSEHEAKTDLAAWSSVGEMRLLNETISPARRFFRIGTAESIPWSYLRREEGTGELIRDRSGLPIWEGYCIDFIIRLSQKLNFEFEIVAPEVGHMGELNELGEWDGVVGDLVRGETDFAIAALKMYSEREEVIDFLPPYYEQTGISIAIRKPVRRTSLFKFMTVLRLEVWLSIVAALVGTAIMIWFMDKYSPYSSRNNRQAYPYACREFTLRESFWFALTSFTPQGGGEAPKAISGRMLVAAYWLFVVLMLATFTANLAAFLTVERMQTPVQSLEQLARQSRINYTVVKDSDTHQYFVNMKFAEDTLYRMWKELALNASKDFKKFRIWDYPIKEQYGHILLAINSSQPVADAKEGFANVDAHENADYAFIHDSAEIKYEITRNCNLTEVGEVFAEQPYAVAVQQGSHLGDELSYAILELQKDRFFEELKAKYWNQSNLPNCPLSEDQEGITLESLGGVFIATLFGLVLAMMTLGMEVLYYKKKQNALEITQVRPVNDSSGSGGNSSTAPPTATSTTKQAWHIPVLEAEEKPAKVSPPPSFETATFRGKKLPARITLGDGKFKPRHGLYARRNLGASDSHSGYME

[2] = molecular target: T2, Or19a (Drosophila melanogaster, UniProt Q9I816); settings: odorant dilution 10^-1 in hexane, 0.5 s stimulus
T2 construct: native full-length receptor in olfactory sensory neurons (ai2 sensillum) of wild-type flies; paralogue Or19b may be co-expressed; with Odorant receptor coreceptor
T2 sequence (Q9I816 1-387): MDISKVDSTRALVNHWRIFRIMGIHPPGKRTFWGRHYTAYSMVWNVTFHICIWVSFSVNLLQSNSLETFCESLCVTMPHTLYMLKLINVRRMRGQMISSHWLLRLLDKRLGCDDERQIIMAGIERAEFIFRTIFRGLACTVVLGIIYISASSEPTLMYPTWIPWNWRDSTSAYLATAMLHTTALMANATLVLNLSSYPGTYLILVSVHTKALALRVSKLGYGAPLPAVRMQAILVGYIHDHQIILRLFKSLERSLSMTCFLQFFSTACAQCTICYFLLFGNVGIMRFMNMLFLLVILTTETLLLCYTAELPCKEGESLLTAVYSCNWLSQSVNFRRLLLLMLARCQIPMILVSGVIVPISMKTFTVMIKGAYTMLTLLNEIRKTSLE
T2 sequence (Q9VNB5 1-486 partner): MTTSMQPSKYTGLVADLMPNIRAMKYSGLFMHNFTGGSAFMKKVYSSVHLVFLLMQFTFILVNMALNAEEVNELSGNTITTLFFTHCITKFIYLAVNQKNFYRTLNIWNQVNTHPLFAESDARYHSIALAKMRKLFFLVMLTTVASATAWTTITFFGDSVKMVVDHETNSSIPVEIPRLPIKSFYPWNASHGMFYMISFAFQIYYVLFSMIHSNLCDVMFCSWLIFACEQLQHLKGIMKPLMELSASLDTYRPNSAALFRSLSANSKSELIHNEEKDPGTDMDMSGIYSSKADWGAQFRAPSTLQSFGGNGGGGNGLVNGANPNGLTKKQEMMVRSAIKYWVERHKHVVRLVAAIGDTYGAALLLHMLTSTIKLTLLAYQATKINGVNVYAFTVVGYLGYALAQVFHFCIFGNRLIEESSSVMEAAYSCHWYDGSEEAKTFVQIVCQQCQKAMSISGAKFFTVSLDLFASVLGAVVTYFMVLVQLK

[3] = molecular target: T3, Or22a (Drosophila melanogaster, UniProt P81909); settings: agonist; odorant dilution 10^-1 in hexane, 0.5 s stimulus
T3 construct: native full-length receptor in olfactory sensory neurons (ab3A) of wild-type flies; Or22b may be co-expressed; with Odorant receptor coreceptor
T3 sequence (P81909 1-397): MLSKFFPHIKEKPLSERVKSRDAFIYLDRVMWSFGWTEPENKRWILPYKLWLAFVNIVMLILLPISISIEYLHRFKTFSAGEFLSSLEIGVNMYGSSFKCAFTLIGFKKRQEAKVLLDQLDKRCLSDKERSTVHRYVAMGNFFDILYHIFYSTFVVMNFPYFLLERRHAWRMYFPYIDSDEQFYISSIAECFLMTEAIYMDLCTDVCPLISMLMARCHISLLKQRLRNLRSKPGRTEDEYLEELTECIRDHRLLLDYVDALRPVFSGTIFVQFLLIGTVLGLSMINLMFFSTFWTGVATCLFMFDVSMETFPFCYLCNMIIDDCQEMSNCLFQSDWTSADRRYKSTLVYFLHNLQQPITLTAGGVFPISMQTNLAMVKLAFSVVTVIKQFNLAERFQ
T3 sequence (Q9VNB5 1-486 partner): T2 sequence (Q9VNB5 1-486 partner)

[4] = molecular target: T4, Or49b (Drosophila melanogaster, UniProt Q9V6H2); settings: agonist (best ligand); odorant dilution 10^-1 in hexane, 0.5 s stimulus
T4 construct: native full-length receptor in olfactory sensory neurons (ab6B) of wild-type flies (single sensillum recording); with Odorant receptor coreceptor
T4 sequence (Q9V6H2 1-375): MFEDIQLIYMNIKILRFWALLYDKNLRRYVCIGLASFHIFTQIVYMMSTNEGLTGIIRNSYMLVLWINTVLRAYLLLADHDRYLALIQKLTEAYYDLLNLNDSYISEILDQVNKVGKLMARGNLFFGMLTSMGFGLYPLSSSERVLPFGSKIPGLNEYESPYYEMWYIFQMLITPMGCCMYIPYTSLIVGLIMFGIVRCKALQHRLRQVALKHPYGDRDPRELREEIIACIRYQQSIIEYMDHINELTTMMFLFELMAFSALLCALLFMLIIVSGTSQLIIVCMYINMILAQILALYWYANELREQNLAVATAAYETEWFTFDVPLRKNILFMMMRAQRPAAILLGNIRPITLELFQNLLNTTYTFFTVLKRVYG
T4 sequence (Q9VNB5 1-486 partner): T2 sequence (Q9VNB5 1-486 partner)

For `CCCC(=O)C(=O)O` [2-oxo-valeric acid], the spikes/s [1] was “both being chemosensory receptors shown to be activated by stimulation with this odorant”, the spikes/s ([2]; printed as gated by the odorant, direction not told) was “Or19a as an OR being gated by 2-oxo-valeric acid” and the spikes/s [3] was “both being chemosensory receptors shown to be activated by stimulation with this odorant”.

`COc1ccccc1O` [guaiacol] was tested, and the spikes/s [4] was “confirming the published ligand–receptor interaction of guaiacol and Or49b”.

With `CC(=O)OC/C=C(\C)CCC=C(C)C` [geranyl acetate] the spikes/s ([2]; agonist) was “OSNs expressing Or19a indeed become activated by high amounts of geranyl acetate”.
